Measured values taken from ChEMBL document CHEMBL3991947, “D-serine transporter inhibitors as pharmaceutical compositions for the treatment of central nervous system disorders” (2014).
Active and inactive are the calls of the source.

Assays:
[1] = target: T1, Glutamate NMDA receptor (Rattus norvegicus) (UniProt P35439+Q00959+Q00960+Q00961+Q62645+Q8VHN2+Q9R1M7); experiment: Potentiation of NMDA receptor mediated excitatory post-synaptic currents in the CA1 region of rat hippocampal slices upto 1 hr by whole-cell patch-clamp assay
[2] = target: T2, Amino acid transporter (Rattus norvegicus) (UniProt Q9Z1J7); experiment: Inhibition of ASCT2 mediated [3H]-D-serine uptake in rat hippocampal astrocytes at 1 mM after 5 mins by beta counting analysis; assay type: cell-based
T2 sequence (whole entry): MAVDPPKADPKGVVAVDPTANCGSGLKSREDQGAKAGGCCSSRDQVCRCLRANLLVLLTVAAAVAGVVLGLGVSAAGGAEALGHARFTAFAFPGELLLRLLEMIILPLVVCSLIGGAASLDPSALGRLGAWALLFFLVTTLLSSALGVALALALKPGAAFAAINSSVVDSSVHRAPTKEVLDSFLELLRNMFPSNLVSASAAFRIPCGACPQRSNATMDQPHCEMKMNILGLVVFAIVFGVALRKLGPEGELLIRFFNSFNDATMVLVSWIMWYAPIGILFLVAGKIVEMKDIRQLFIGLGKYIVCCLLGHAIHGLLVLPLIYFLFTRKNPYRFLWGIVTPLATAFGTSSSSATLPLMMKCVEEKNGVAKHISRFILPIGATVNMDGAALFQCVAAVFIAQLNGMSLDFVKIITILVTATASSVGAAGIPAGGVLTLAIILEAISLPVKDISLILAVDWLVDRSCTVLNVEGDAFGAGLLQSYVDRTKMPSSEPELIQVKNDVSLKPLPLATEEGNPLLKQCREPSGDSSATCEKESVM

[3] = target: T1, Glutamate NMDA receptor (Rattus norvegicus); experiment: Activation of NMDA receptor in rat visual cortex assessed as increase in theta burst stimulation of LTP after 15 mins followed by LTP induction by electrophysiological assay
[4] = target: T1, Glutamate NMDA receptor (Rattus norvegicus); experiment: Activation of NMDA receptor in rat visual cortex assessed as increase in theta burst stimulation of LTP after 15 mins followed by LTP induction in presence of DAAO by electrophysiological assay
[5] = target: T1, Glutamate NMDA receptor (Rattus norvegicus); experiment: Potentiation of NMDA receptor mediated excitatory post-synaptic currents in the CA1 region of rat hippocampal slices after 1 hr by electrophysiological assay
[6] = organism: Rattus norvegicus; experiment: Inhibition of D-serine transporter in Sprague-Dawley rat visual cortex assessed as LTP threshold after 15 mins
[7] = system: Rattus norvegicus; experiment: Antipsychotic activity in rat model of schizophrenia assessed as […] in prepulse inhibition at 15 mg/kg; assay type: functional, organism-based
[8] = system: Rattus norvegicus; experiment: Effect on absolute startle response in rat model of schizophrenia at 15 mg/kg; assay type: ADME, organism-based; settings: in vivo
[9] = organism: Rattus norvegicus; experiment: Inhibition of D-serine transporter in rat hippocampal slices assessed as increase in LTP at 100 uM
[10] = system: Rattus norvegicus; experiment: Antipsychotic activity in rat model of schizophrenia assessed as […] in prepulse inhibition at 600 mg/kg; assay type: functional, organism-based
[11] = system: Rattus norvegicus; experiment: Effect on absolute startle response in rat model of schizophrenia at 600 mg/kg; assay type: ADME, organism-based; settings: in vivo
[12] = system: Mus musculus; experiment: Reduction in amphetamine-induced hyperactivity in systemically dosed C57B/6 mouse model of schizophrenia administered at 30 mins after habituation in open field apparatus followed by amphetamine injection measured for 1 hr post dose; assay type: functional, organism-based
[13] = system: Mus musculus; experiment: Reduction in amphetamine-induced hyperactivity in C57B/6 mouse model of schizophrenia at 0.3 mg/kg, ip administered at 30 mins after habituation in open field apparatus followed by amphetamine injection measured for 1 hr post dose; assay type: functional, organism-based
[14] = target: T2, Amino acid transporter (Rattus norvegicus); experiment: Inhibition of ASCT2 in rat hippocampal astrocytes assessed as reduction in [3H]-D-serine uptake in presence of L-t-40HPro after 5 mins by beta counting analysis; assay type: cell-based
[15] = system: Mus musculus; experiment: Reduction in amphetamine-induced hyperactivity in C57B/6 mouse model of schizophrenia at 1 mg/kg administered at 30 mins after habituation in open field apparatus followed by amphetamine injection measured for 1 hr post dose; assay type: functional, organism-based
[16] = target: T2, Amino acid transporter (Rattus norvegicus); experiment: Inhibition of ASCT2 in rat hippocampal astrocytes assessed as reduction in [3H]-D-serine uptake in presence of L-glutamine after 5 mins by beta counting analysis; assay type: cell-based

Row | Structure (SMILES) | inhibition [2] [%] | further results
1 | O=C(O)[C@@H]1CCCN1 | > 25 | Activity [1]: inactive
2 | N[C@H](CO)C(=O)O [(D)-SERINE] | > 25 | Activity [1]: inactive; Activity [6]: 3 µM; Activity [10]: inactive; Activity [11]: Non-Toxic
3 | N[C@H](C(=O)O)C1CC1 | > 25 | Activity [6]: 1 µM
4 | N[C@@H](CCC(=O)OCc1ccccc1)C(=O)O | – | Activity [1]: inactive
5 | NC(=O)CC[C@H](N)C(=O)O | > 25 | Activity [1]: inactive; inhibition [14]: Active
6 | O=C(O)[C@@H]1C[C@@H](Cc2ccc(Cl)cc2Cl)CN1 | – | Activity [15]: Active
7 | O=C(O)/C(=C/c1c(C(=O)O)[nH]c2cc(Cl)cc(Cl)c12)c1ccccc1 | > 25 | –
8 | CC(C)(C)OC(=O)N1C[C@H](C/C=C/c2ccccc2)C[C@H]1C(=O)O | > 25 | –
9 | CC(C)(S)[C@H](N)C(=O)O | > 25 | –
10 | CCC[C@H](N)C(=O)O | > 25 | –
11 | O=C(O)C1C[C@@H](Cc2ccc(Br)cc2)CN1 (single isomer, unassigned) | > 25 | –
12 | O=C(O)C1C[C@@H](Cc2ccc(F)c(F)c2)CN1 (single isomer, unassigned) | > 25 | –
13 | O=C(O)[C@@H]1C[C@@H](Cc2ccc3ccccc3c2)CN1 | > 25 | –
14 | O=C(O)C1C[C@@H](Cc2csc3ccccc23)CN1 (single isomer, unassigned) | > 25 | –
15 | NC(=O)C[C@H](N)C(=O)O | > 25 | Activity [1]: inactive; Activity [6]: 3 µM
16 | O=C(/C=C/c1c(C(=O)O)[nH]c2cc(Cl)cc(Cl)c12)Nc1ccccc1 | > 25 | –
17 | N[C@@H](CC1CC1)C(=O)O | > 25 | –
18 | O=C(O)[C@@H]1CCN1 | > 25 | –
19 | C[C@@H](O)[C@@H](N)C(=O)O (racemic) | > 25 | –
20 | N[C@@H](CO)C(=O)O | > 25 | Activity [1]: inactive
21 | NC(C(=O)O)c1ccccc1Cl (configuration not stated) | > 25 | –
22 | O=C(O)[C@@H]1C[C@@H](Oc2cccc(Cl)c2)CN1 | > 25 | –
23 | O=C(O)[C@@H]1CN1 | > 25 | –
24 | O=C(O)[C@@H]1C[C@@H](O)CN1 | > 25 | Activity [1]: inactive; inhibition [16]: Active; Activity [6]: 3 µM
25 | NC1(C(=O)O)CCCC1 | > 25 | –

Second part, led by results:

Row | inhibition [2] [%] | Structure (SMILES) | further results
26 | > 25 | N[C@H](C(=O)O)c1ccc(O)cc1 [OXFENICINE] | Activity [1]: Dose-dependent effect; Activity [3]: Dose-dependent effect; Activity [4]: inactive; Activity [5]: inactive; Activity [6]: 10 µM; Activity [7]: Active; Activity [8]: Non-Toxic
27 | > 25 | N[C@@H](CSCc1ccccc1)C(=O)O | Activity [1]: inactive
28 | > 25 | N[C@@H](CCC(=O)Nc1ccc([N+](=O)[O-])cc1)C(=O)O | Activity [1]: inactive; Activity [6]: 100 µM; inhibition [9]: Active
29 | > 25 | N[C@H](C(=O)O)c1ccc(F)cc1 | Activity [12]: Dose-dependent effect; Activity [1]: inactive; Activity [6]: 0.3 µM; Activity [13]: Active
30 | > 25 | N[C@@H](CSc1ccccc1)C(=O)O | Activity [1]: inactive
31 | > 25 | N[C@H](C(=O)O)c1ccccc1 | Activity [1]: inactive; Activity [6]: 10 µM
32 | > 25 | NC(Cc1c[nH]c2cc(F)ccc12)C(=O)O (configuration not stated) | –
33 | > 25 | N[C@H](C(=O)O)c1ccc(C(F)(F)F)cc1 | –
34 | > 25 | NC(C(=O)O)c1ccc2c(c1)OCO2 (configuration not stated) | –
35 | > 25 | Nc1ccccc1C(=O)C[C@H](N)C(=O)O | –
36 | > 25 | NC(C(=O)O)C(O)c1cccs1 (racemic) | –
37 | > 25 | COC(=O)[C@@H](N)c1ccccc1 | –
38 | > 25 | NC(C(=O)O)c1ccc(O)c(O)c1 (configuration not stated) | –
39 | > 25 | NC(C(=O)O)c1ccc(CO)c(O)c1 (configuration not stated) | –
40 | > 25 | NC(C(=O)O)c1cc(O)cc(O)c1 (configuration not stated) | –
41 | > 25 | NC(C(=O)O)c1cc(O)ccc1Cl (configuration not stated) | –
42 | > 25 | N[C@@H](Cc1cccs1)C(=O)O | –
43 | > 25 | NC(C(=O)O)c1cccc(C(F)(F)F)c1 (configuration not stated) | –
44 | > 25 | NC(C(=O)O)c1ccccc1F (configuration not stated) | Activity [1]: inactive; Activity [6]: > 300 µM
45 | > 25 | N[C@@H](Cc1c[nH]c2ccccc12)C(=O)O | –
46 | > 25 | Cc1cc(C(N)C(=O)O)ccc1F (configuration not stated) | –
47 | > 25 | N[C@H](C(=O)O)c1ccco1 | –
48 | > 25 | N[C@@H](CCC(=O)Nc1cccc2ccccc12)C(=O)O | –
